Assay results as given in patent publication US20030176314A1, “Compounds for the treatment of pain” (priority 2001, published 2003).
pEC50: −log10 of the molar value. Like-named read-outs stand apart in the source and are kept apart here.

Assays:
[1] = target: T1, rat NPFF2 receptor (Rattus norvegicus, UniProt Q9EQD2); experiment: Functional assay (agonist potency, intrinsic activity) at cloned rat NPFF2 receptor; format: cell-based; settings: for rNPFF2 IA: Table 7, intrinsic activity; for Functional Activity rNPFF2 I.A. %: percent of maximum response elicited by neuropeptide FF; for pEC50: read-out: Functional Activity rNPFF2 EC50
T1 construct: The full-length NPFF2 was amplified from rat spinal cord cDNA; expressed in transfected cells; host or cells: not given
T1 sequence (Q9EQD2 whole entry): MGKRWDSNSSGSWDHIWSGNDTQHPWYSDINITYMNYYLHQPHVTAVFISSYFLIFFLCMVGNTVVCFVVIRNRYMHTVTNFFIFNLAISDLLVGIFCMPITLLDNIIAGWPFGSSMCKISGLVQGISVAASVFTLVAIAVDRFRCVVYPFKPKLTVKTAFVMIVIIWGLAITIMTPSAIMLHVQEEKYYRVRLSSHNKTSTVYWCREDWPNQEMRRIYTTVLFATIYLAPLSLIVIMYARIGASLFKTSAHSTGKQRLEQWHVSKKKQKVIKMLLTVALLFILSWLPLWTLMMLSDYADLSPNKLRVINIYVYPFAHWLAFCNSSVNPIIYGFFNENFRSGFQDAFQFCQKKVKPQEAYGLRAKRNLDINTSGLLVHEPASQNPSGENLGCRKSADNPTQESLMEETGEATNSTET

[2] = target: T2, rat NPFF1 receptor (Rattus norvegicus, UniProt Q9EP86); experiment: Functional assay (agonist potency, intrinsic activity) at cloned rat NPFF1 receptor; format: cell-based; settings: for rNPFF1 IA: Table 7, intrinsic activity; for Functional Activity rNPFF1 I.A. %: percent of maximum response elicited by neuropeptide FF
T2 construct: expressed in transfected cells; host or cells: not given
T2 sequence (Q9EP86 whole entry): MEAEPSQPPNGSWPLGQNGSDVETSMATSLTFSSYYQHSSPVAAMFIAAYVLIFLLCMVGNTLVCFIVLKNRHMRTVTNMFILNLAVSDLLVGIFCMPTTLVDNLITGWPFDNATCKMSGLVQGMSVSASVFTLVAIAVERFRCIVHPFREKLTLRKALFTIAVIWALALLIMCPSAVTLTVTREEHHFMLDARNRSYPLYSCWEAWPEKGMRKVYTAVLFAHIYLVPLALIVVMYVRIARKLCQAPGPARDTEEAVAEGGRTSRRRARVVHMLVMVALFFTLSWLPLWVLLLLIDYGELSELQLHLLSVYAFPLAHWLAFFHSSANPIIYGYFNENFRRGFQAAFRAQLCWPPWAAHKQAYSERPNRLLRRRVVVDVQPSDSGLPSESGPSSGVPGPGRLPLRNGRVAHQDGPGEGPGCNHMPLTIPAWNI

[3] = Table 7, agonist potency, read-out: rNPFF1 EC50
[4] = agonist: IA>15%, antagonist: Ki≦1.2 mM and IA≦15% at the rat cloned NPFF receptors

Cc1ccc2nc(NC(=N)N)nc(C)c2c1 [Compound 1002A, N-(4,6-dimethyl-2-quinazolinyl)guanidine]
rNPFF2 IA [1]: 24% NPFF

Cc1nc(NC(=N)N)nc2ccc(C(C)(C)C)cc12 [Compound 1004A, N-(6-tert-butyl-4-methyl-2-quinazolinyl)guanidine]
rNPFF2 IA [1]: 90% NPFF | rNPFF1 IA [2]: 36% NPFF

N=C(N)NCCC[C@H](NS(=O)(=O)c1c(F)cccc1F)C(=O)N[C@@H](Cc1ccccc1)C(N)=O [Compound 1004B]
Functional Activity rNPFF2 I.A. % ([1]; Table 4): 43% | pEC50 ([1]; Table 4): < 5.50 | Functional Activity rNPFF1 I.A. % ([2]; Table 4): 79%

N=C(N)NCCC[C@H](NS(=O)(=O)c1ccc(F)cc1)C(=O)N[C@@H](Cc1ccccc1)C(N)=O [Compound 1005B]
Functional Activity rNPFF2 I.A. % ([1]; Table 4): 46%

Cc1nc(NC(=N)N)nc2cc(OCc3ccccc3)ccc12 [Compound 1006A, N-[7-(benzyloxy)-4-methyl-2-quinazolinyl]guanidine]
rNPFF2 IA [1]: 22% NPFF | rNPFF1 IA [2]: 15% NPFF

Cc1ccc(S(=O)(=O)N[C@@H](CCCNC(=N)N)C(=O)N[C@@H](Cc2ccccc2)C(N)=O)cc1 [Compound 1007B]
Functional Activity rNPFF2 I.A. % ([1]; Table 4): 55%

CCCc1ccc2nc(NC(=N)N)nc(C)c2c1 [Compound 1008A, N-(4-methyl-6-propyl-2-quinazolinyl)guanidine]
rNPFF2 IA [1]: 85% NPFF

CCCCCCCCc1ccc2nc(NC(=N)N)nc(C)c2c1 [Compound 1009A, N-(4-methyl-6-octyl-2-quinazolinyl)guanidine]
rNPFF2 IA [1]: 22% NPFF | pEC50 [2, 3]: 5.83

Cc1nc(NC(=N)N)nc2ccc(-c3ccccc3)cc12 [Compound 1010A, N-(4-methyl-6-phenyl-2-quinazolinyl)guanidine]
rNPFF2 IA [1]: 22% NPFF

N=C(N)NCCC[C@H](NS(=O)(=O)c1ccc(Cl)cc1Cl)C(=O)N[C@@H](Cc1ccccc1)C(N)=O [Compound 1010B]
Functional Activity rNPFF2 I.A. % ([1]; Table 4): 28%

CCCCOc1ccc2nc(NC(=N)N)nc(C)c2c1 [Compound 1012A, N-(6-butoxy-4-methyl-2-quinazolinyl)guanidine]
rNPFF2 IA [1]: 80% NPFF

Cc1nc(NC(=N)N)nc2cc(Br)ccc12 [Compound 1014A, N-(7-bromo-4-methyl-2-quinazolinyl)guanidine]
rNPFF2 IA [1]: 47% NPFF

Cc1cc2nc(NC(=N)N)nc(C)c2cc1C [Compound 1015A, N-(4,6,7-trimethyl-2-quinazolinyl)guanidine]
rNPFF2 IA [1]: 56% NPFF

COc1ccc(S(=O)(=O)N[C@@H](CCCNC(=N)N)C(=O)N[C@@H](Cc2ccccc2)C(N)=O)cc1OC [Compound 1015B]
Functional Activity rNPFF2 I.A. % ([1]; Table 4): 74% | Functional Activity rNPFF1 I.A. % ([2]; Table 4): 84%

COc1cc2c(C)nc(NC(=N)N)nc2cc1C [Compound 1016A, N-(6-methoxy-4,7-dimethyl-2-quinazolinyl)guanidine]
rNPFF2 IA [1]: 74% NPFF

Cc1cc2nc(NC(=N)N)nc(C)c2cc1O [Compound 1017A, N-(6-hydroxy-4,7-dimethyl-2-quinazolinyl)guanidine]
rNPFF2 IA [1]: 23% NPFF

Cc1nc(NC(=N)N)nc2cc(F)c(F)cc12 [Compound 1019A, N-(6,7-difluoro-4-methyl-2-quinazolinyl)guanidine]
rNPFF2 IA [1]: 31% NPFF

N=C(N)NCCC[C@H](NS(=O)(=O)c1c(Cl)cccc1Cl)C(=O)N[C@@H](Cc1ccccc1)C(N)=O [Compound 1019B]
classification as agonist or antagonist at the NPFF2 receptor [1, 4]: agonists | classification as agonist or antagonist at the NPFF1 receptor [2, 4]: agonists

Cc1nc(NC(=N)N)nc2cc(C(C)C)ccc12 [Compound 1021A, N-(7-isopropyl-4-methyl-2-quinazolinyl)guanidine]
rNPFF2 IA [1]: 76% NPFF

N=C(N)NCCC[C@H](NS(=O)(=O)c1ccc(Cl)c(Cl)c1)C(=O)N[C@@H](Cc1ccccc1)C(N)=O [Compound 1022B]
Functional Activity rNPFF2 I.A. % ([1]; Table 4): 34% | pEC50 ([1]; Table 4): < 5.50 | Functional Activity rNPFF1 I.A. % ([2]; Table 4): 86% | pEC50 ([2]; Table 4, read-out: Functional Activity rNPFF1 EC50): 5.73

Cc1nc(NC(=N)N)nc2cc(OC(C)C)ccc12 [Compound 1025A, N-[4-methyl-7-(isopropoxy)-2-quinazolinyl]guanidine]
rNPFF2 IA [1]: 27% NPFF

Cc1nc(NC(=N)N)nc2ccc(Br)cc12 [Compound 1026A, N-(6-bromo-4-methyl-2-quinazolinyl)guanidine]
rNPFF2 IA [1]: 19% NPFF

N=C(N)NCCC[C@H](NS(=O)(=O)c1ccccc1[N+](=O)[O-])C(=O)N[C@@H](Cc1ccccc1)C(N)=O [Compound 1026B]
Functional Activity rNPFF2 I.A. % ([1]; Table 4): 59% | Functional Activity rNPFF1 I.A. % ([2]; Table 4): 79%

N#Cc1ccccc1S(=O)(=O)N[C@@H](CCCNC(=N)N)C(=O)N[C@@H](Cc1ccccc1)C(N)=O [Compound 1027B]
Functional Activity rNPFF2 I.A. % ([1]; Table 4): 48% | Functional Activity rNPFF1 I.A. % ([2]; Table 4): 52%

Cc1nc(NC(=N)N)nc2ccc(OCc3ccccc3)cc12 [Compound 1028A, N-[6-(benzyloxy)-4-methyl-2-quinazolinyl]guanidine]
rNPFF2 IA [1]: 79% NPFF

N=C(N)NCCC[C@@H](NS(=O)(=O)c1ccc(F)cc1)C(=O)N[C@@H](Cc1ccccc1)C(N)=O [Compound 1028B]
Functional Activity rNPFF2 I.A. % ([1]; Table 5): 62% | Functional Activity rNPFF1 I.A. % ([2]; Table 5): 46%

Cc1nc(NC(=N)N)nc2ccc(C3CCCCC3)cc12 [Compound 1029A, N-(6-cyclohexyl-4-methyl-2-quinazolinyl)guanidine]
rNPFF2 IA [1]: 31% NPFF | rNPFF1 IA [2]: 28% NPFF

Cc1nc(NC(=N)N)nc2ccc(OC(F)(F)F)cc12 [Compound 1030A, N-[4-methyl-6-(trifluoromethoxy)-2-quinazolinyl]guanidine]
rNPFF2 IA [1]: 85% NPFF

CCCCCOc1ccc2nc(NC(=N)N)nc(C)c2c1 [Compound 1031A, N-[4-methyl-6-(pentyloxy)-2-quinazolinyl]guanidine]
rNPFF2 IA [1]: 66% NPFF

Cc1nc(NC(=N)N)nc2ccc(Oc3ccccc3)cc12 [Compound 1032A, N-(4-methyl-6-phenoxy-2-quinazolinyl)guanidine]
rNPFF2 IA [1]: 93% NPFF | rNPFF1 IA [2]: 31% NPFF

Cc1ccc(Oc2ccc3nc(NC(=N)N)nc(C)c3c2)cc1 [Compound 1033A, N-[4-methyl-6-(4-methylphenoxy)-2-quinazolinyl]guanidine]
rNPFF2 IA [1]: 51% NPFF

Cc1nc(NC(=N)N)nc2ccc(CCCC(C)O)cc12 (stereo not shown) [Compound 1034A, N-(6-[1-(4-hydroxyl-pentyl)]-4-methyl-2-quinazolino)guanidine]
rNPFF2 IA [1]: 101% NPFF | rNPFF1 IA [2]: 63% NPFF

Cc1nc(NC(=N)N)nc2cc(C(C)O)ccc12 (stereo not shown) [Compound 1035A, N-[7-(1-hydroxyethyl)-4-methyl-2-quinazolinyl]guanidine]
rNPFF2 IA [1]: 52% NPFF

Cc1nc(NC(=N)N)nc2cc(OC(F)(F)F)ccc12 [Compound 1036A, N-[4-methyl-7-(trifluoromethoxy)-2-quinazolinyl]guanidine]
rNPFF2 IA [1]: 78% NPFF

Cc1nc(NC(=N)N)nc2cc3c(cc12)C=CCC3 [Compound 1037A, N-(4-methyl-8,9-dihydrobenzo[g]quinazolin-2-yl)guanidine]
rNPFF2 IA [1]: 71% NPFF

Cc1nc(NC(=N)N)nc2cc3ccoc3cc12 [Compound 1039A, N-(4-methylfuro[2,3-g]quinazolin-2-yl)guanidine]
rNPFF2 IA [1]: 78% NPFF | pEC50 [2, 3]: < 5.00

N=C(N)NCCC[C@H](NS(=O)(=O)c1ccccc1Br)C(=O)N[C@@H](Cc1ccccc1)C(N)=O [Compound 2001B]
Functional Activity rNPFF2 I.A. % ([1]; Table 4): 9% | Functional Activity rNPFF1 I.A. % ([2]; Table 4): 81%

N=C(N)NCCC[C@H](NS(=O)(=O)c1ccc([N+](=O)[O-])cc1[N+](=O)[O-])C(=O)N[C@@H](Cc1ccccc1)C(N)=O [Compound 2002B]
Functional Activity rNPFF2 I.A. % ([1]; Table 4): 5% | Functional Activity rNPFF1 I.A. % ([2]; Table 4): 34%

Cc1nc(NC(=N)N)nc2ccc(Cc3ccccc3)cc12 [Compound 2003A, N-(6-benzyl-4-methyl-2-quinazolinyl)guanidine]
rNPFF2 IA [1]: 89% NPFF | rNPFF1 IA [2]: 56% NPFF

CCCCc1ccc2nc(NC(=N)N)nc(C)c2c1 [Compound 2004A, N-(6-butyl-4-methyl-2-quinazolinyl)guanidine]
rNPFF2 IA [1]: 101% NPFF | rNPFF1 IA [2]: 40% NPFF

CCCCCCc1ccc2nc(NC(=N)N)nc(C)c2c1 [Compound 2005A, N-(6-hexyl-4-methyl-2-quinazolinyl)guanidine]
rNPFF2 IA [1]: 81% NPFF | rNPFF1 IA [2]: 56% NPFF

CCCCCCCc1ccc2nc(NC(=N)N)nc(C)c2c1 [Compound 2006A, N-(6-heptyl-4-methyl-2-quinazolinyl)guanidine]
rNPFF2 IA [1]: 47% NPFF | rNPFF1 IA [2]: 38% NPFF

Cc1ccc2nc(NC(=N)N)cc(C)c2c1 [Compound 4001A, N-(4,6-dimethyl-2-quinolinyl)guanidine]
rNPFF2 IA [1]: 68% NPFF

Cc1cc(NC(=N)N)nc2ccc(-c3ccccc3)cc12 [Compound 4003A, N-(4-methyl-6-phenyl-2-quinolinyl)guanidine]
rNPFF2 IA [1]: 26% NPFF

COc1ccc2nc(NC(=N)N)cc(C)c2c1 [Compound 4004A, N-(6-methoxy-4-methyl-2-quinolinyl)guanidine]
rNPFF2 IA [1]: 65% NPFF

Cc1cc(NC(=N)N)nc2cc(F)ccc12 [Compound 4007A, N-(7-fluoro-4-methyl-2-quinolinyl)guanidine]
rNPFF2 IA [1]: 17% NPFF

Cc1cc(C)c2c(C)cc(NC(=N)N)nc2c1 [Compound 4008A, N-(4,5,7-trimethyl-2-quinolinyl)guanidine]
rNPFF2 IA [1]: 65% NPFF

Cc1cc(NC(=N)N)nc2ccc3ccccc3c12 [Compound 4009A, N-(1-methylbenzo[f]quinolin-3-yl)guanidine]
rNPFF2 IA [1]: 70% NPFF

CCCCc1ccc2nc(NC(=N)N)cc(C)c2c1 [Compound 5001A, N-(6-butyl-4-methyl-2-quinolinyl)guanidine]
rNPFF2 IA [1]: 82% NPFF | rNPFF1 IA [2]: 28% NPFF
